Several values for one entry are separate records, joined by “and”; a condition that tells them apart may be missing. Equal entries are not always repeated.
Target: T1, pure CA11 enzyme from human erythrocyte (Homo sapiens, UniProt P00918)
T1 construct: pure CA11 enzyme from human erythrocyte; from tissue; host or cells: human erythrocyte
Assay: Carbonic anhydrase activity assay, micromethod of Maren
Assay type: biochemical
Settings: concentration that lowers the enzyme activity to half; 0°-4° C.; phenol red endpoint, pH 9.9 to 6.8
Protocol: Carbonic anhydrase activity was assayed according to the micromethod of Maren (J. Pharmacol. Exptl. Therap., 130, 26-29, 1960). All solutions and reagents were maintained at 0°-4° C. The final assay mixture contained 16 mM phenol red, added enzyme and 62.5 mM sodium carbonate/bicarbonate. Its volume was kept constant at 0.8 mL. The time required for the added enzyme to lower the pH of CO2 -saturated carbonate/bicarbonate buffer from pH 9.9 to 6.8 was measured using the color change of phenol red as endpoint. T1 is the time recorded for the reaction containing no enzyme. T2 is the time recorded for the reaction containing pure CA11 enzyme from human erythrocyte, or an unknown amount in a sample. Enzyme activities (unit) were calculated using the formula:
Unit/ug=(T1 -T2)/(T2 *ug protein used in assay)
IC50 of a carbonic anhydrase inhibitor is the concentration that lowers the enzyme activity to half.

Compound	IC50
CCCCCCC(=O)c1cc(S(N)(=O)=O)cs1 [5-(1-heptanoyl)-3-thiophene sulfonamide]	14 nM
CCCCCCC(O)c1cc(S(N)(=O)=O)cs1 (stereo not shown) [5-(1-hydroxy-n-heptyl)-3-thiophene sulfonamide]	31 nM
CCCCC(O)c1cc(S(N)(=O)=O)cs1 (stereo not shown) [5-(1-hydroxy-n-pentyl)-3-thiophene sulfonamide]	32 nM
CCCCC(=NO)c1cc(S(N)(=O)=O)cs1 [5-(1-pentanoyl)-3-thiophene sulfonamide, oxime]	22 nM
CCCCC(=O)c1cc(S(N)(=O)=O)cs1 [5-(1-pentanoyl)-3-thiophene sulfonamide]	27 nM
NS(=O)(=O)c1csc(C(O)c2cccc(O)c2)c1 (stereo not shown) [5-(3-hydroxybenzhydrol)-3-thiophene sulfonamide]	37 nM
NS(=O)(=O)c1csc(C(=O)c2cc(F)cc(F)c2)c1 [5-(3.5-difluorobenzoyl)-3-thiophene sulfonamide]	15 nM
CC(=O)Oc1ccc(C(=O)c2cc(S(N)(=O)=O)cs2)cc1 [5-(4-acetoxybenzoyl)-3-thiophene sulfonamide]	12 nM and 3.6 nM
CC(=O)OCc1ccc(C(=O)c2cc(S(N)(=O)=O)cs2)cc1 [5-(4-acetoxymethylbenzoyl)-3-thiophene sulfonamide]	6 nM
NS(=O)(=O)c1csc(C(O)c2ccc(C=O)cc2)c1 (stereo not shown) [5-(4-formylbenzhydrol)-3-thiophene sulfonamide]	18 nM
CN(C)Cc1cc(C(=O)c2cc(S(N)(=O)=O)cs2)cc(CN(C)C)c1O [5-(4-hydroxy-3,5-(bis-N,N-dimethylaminomethyl)benzoyl)-3-thiophene sulfonamide]	155 nM
NS(=O)(=O)c1csc(C(O)c2ccc(O)cc2)c1 (stereo not shown) [5-(4-hydroxybenzhydrol)3-thiophene sulfonamide]	26 nM
NS(=O)(=O)c1csc(C(O)c2ccc(CO)cc2)c1 (stereo not shown) [5-(4-hydroxymethylbenzhydrol)-3-thiophene sulfonamide]	41 nM
CC(C)(C)OC(=O)c1ccc(C(=O)c2cc(S(N)(=O)=O)cs2)cc1 [5-(4-t-butoxycarbonylbenzoyl)-3-thiophene sulfonamide]	3 nM
NS(=O)(=O)c1csc(C(O)c2ccccn2)c1 (stereo not shown) [5-[(hydroxy)(pyridyl)methyl]-3-thiophene sulfonamide]	240 nM
COC(c1cccc(C(F)(F)F)c1)c1cc(S(N)(=O)=O)cs1 (stereo not shown) [5-[(methoxy)(3-trifluoromethylphenyl)methyl]-3-thiophene sulfonamide]	18 nM
COC(c1ccc(CO)cc1)c1cc(S(N)(=O)=O)cs1 (stereo not shown) [5-[(methoxy)(4-hydroxymethylphenyl)]methyl-3-thiophene sulfonamide]	13 nM
CC(=O)OC(c1ccccc1)c1cc(S(N)(=O)=O)cs1 (stereo not shown) [5-[(phenyl)(acetoxy)methyl]-3-thiophene sulfonamide]	90 nM
NS(=O)(=O)c1csc(C(O)c2ccccc2)c1 (stereo not shown) [5-benzhydrol-3-thiophene sulfonamide, 5-(benzhydrol)-3-thiophene sulfonamide]	74 nM
NS(=O)(=O)c1csc(C(=NO)c2ccccc2)c1 [5-benzoyl-3-thiophene sulfonamide, oxime]	53 nM
NS(=O)(=O)c1csc(C(=O)c2ccccn2)c1 [[5-(3-sulfonamidothienyl)][2-pyridyl] ketone]	19 nM

The remaining lines, values ahead:

IC50	Compound
5.3 nM	NS(=O)(=O)c1csc(C(=O)c2cccc(OC(=O)c3ccccc3)c2)c1
18 nM	NS(=O)(=O)c1csc(C(=O)c2ccccc2F)c1 [5-(2-fluorobenzoyl)-3-thiophene sulfonamide]
11 nM and 14 nM	NS(=O)(=O)c1csc(C(=O)c2cccc(C(=O)O)c2)c1 [5-(3-carboxylbenzoyl)-3-thiophene sulfonamide]
12 nM	NS(=O)(=O)c1csc(C(=O)c2cccc(F)c2)c1 [5-(3-fluorobenzoyl)-3-thiophene sulfonamide]
7.3 nM	NS(=O)(=O)c1csc(C(=O)c2cccc(C=O)c2)c1 [5-(3-formylbenzoyl)-3-thiophene sulfonamide]
6.7 nM	NS(=O)(=O)c1csc(C(=O)c2cccc(O)c2)c1 [5-(3-hydroxybenzoyl)-3-thiophene sulfonamide]
8.3 nM	NS(=O)(=O)c1csc(C(=O)c2cccc(C(F)(F)F)c2)c1 [5-(3-trifluoromethylbenzoyl)-3-thiophene sulfonamide]
8.7 nM	CCCCc1ccc(C(=O)c2cc(S(N)(=O)=O)cs2)cc1 [5-(4-butylbenzoyl)-3-thiophene sulfonamide]
3.4 nM and 5 nM	NS(=O)(=O)c1csc(C(=O)c2ccc(C(=O)O)cc2)c1 [5-(4-carboxybenzoyl)-3-thiophene sulfonamide]
6 nM	CCOC(=O)c1ccc(C(=O)c2cc(S(N)(=O)=O)cs2)cc1 [5-(4-ethoxycarbonylbenzoyl)-3-thiophene sulfonamide]
13 nM	NS(=O)(=O)c1csc(C(=O)c2ccc(C=O)cc2)c1 [5-(4-formylbenzoyl)-3-thiophene sulfonamide]
30 nM	CN(C)Cc1cc(C(=O)c2cc(S(N)(=O)=O)cs2)ccc1O [5-(4-hydroxy-3-(N,N-dimethylaminomethyl)benzoyl)-3-thiophene sulfonamide]
17 nM	NS(=O)(=O)c1csc(C(=O)c2ccc(O)cc2)c1 [5-(4-hydroxybenzoyl)-3-thiophene sulfonamide]
17 nM	NS(=O)(=O)c1csc(C(=O)c2ccc(CO)cc2)c1 [5-(4-hydroxymethylbenzoyl)-3-thiophene sulfonamide]
16 nM	COc1ccc(C(O)c2cc(S(N)(=O)=O)cs2)cc1 (stereo not shown) [5-(4-methoxybenzhydrol)-3-thiophene sulfonamide]
31 nM	COc1ccc(C(=NO)c2cc(S(N)(=O)=O)cs2)cc1 [5-(4-methoxybenzoyl)-3-thiophene sulfonamide, oxime]
26 nM	COc1ccc(C(=O)c2cc(S(N)(=O)=O)cs2)cc1 [5-(4-methoxybenzoyl)-3-thiophene sulfonamide]
9 nM	CCC(=O)Oc1ccc(C(=O)c2cc(S(N)(=O)=O)cs2)cc1 [5-(4-propionoxybenzoyl)-3-thiophene sulfonamide]
13 nM	NS(=O)(=O)c1csc(C(=O)c2ccccc2)c1 [5-benzoyl-3-thiophene sulfonamide]

Reference: US5300499A, “5-substituted 3-thiophene sulfonamides as antiglaucoma agents” (Allergan, Inc., priority 1992, dated 1994)
